Results on 20 molecules are retold here after ChEMBL document CHEMBL5291721, “A preclinical secondary pharmacology resource illuminates target-adverse drug reaction associations of marketed drugs” (Nat Commun, 2023).

The target of one test is Vasopressin V2 receptor (Homo sapiens, UniProt P30518).
The next test concerns the target Motilin receptor (Homo sapiens, UniProt O43193).
For test [1], the target named is 5-hydroxytryptamine receptor 2A (Homo sapiens, UniProt P28223). Type of test: functional, cell-based.
Test [2] concerns the target Neuronal acetylcholine receptor subunit alpha-4 (Homo sapiens, UniProt P43681).
The target in the next test is T1, Adenosine receptor A1 (Homo sapiens, UniProt P30542).
T1 sequence (P30542 whole entry): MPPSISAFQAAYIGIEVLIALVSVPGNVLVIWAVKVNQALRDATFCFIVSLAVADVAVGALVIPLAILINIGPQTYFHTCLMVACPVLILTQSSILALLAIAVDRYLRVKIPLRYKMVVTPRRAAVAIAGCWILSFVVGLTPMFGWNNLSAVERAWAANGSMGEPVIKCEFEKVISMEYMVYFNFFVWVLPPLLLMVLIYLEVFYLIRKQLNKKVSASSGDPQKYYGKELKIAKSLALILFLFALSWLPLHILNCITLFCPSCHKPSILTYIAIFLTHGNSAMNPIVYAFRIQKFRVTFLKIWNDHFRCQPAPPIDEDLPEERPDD

The target of test [3] is T2, Gastrin/cholecystokinin type B receptor (Homo sapiens, UniProt P32239).
T2 sequence (P32239 whole entry): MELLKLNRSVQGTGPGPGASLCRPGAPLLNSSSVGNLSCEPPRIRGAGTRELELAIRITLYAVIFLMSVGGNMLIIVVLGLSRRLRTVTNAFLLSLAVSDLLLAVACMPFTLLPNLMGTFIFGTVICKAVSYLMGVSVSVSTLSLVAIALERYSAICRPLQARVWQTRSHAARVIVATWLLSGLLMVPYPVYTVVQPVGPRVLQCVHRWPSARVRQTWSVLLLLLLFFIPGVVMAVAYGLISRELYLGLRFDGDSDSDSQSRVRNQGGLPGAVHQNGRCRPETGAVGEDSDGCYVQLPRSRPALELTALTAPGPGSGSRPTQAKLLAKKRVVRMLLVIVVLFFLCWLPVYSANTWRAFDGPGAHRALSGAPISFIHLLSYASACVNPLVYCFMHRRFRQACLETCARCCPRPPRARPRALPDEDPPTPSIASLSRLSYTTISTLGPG

The target in test [4] is Voltage-dependent L-type calcium channel subunit alpha-1C (Rattus norvegicus, UniProt P22002). Type of test: functional.
In the next test the target is T3, Endothelin-1 receptor (Homo sapiens, UniProt P25101).
T3 sequence (P25101 whole entry): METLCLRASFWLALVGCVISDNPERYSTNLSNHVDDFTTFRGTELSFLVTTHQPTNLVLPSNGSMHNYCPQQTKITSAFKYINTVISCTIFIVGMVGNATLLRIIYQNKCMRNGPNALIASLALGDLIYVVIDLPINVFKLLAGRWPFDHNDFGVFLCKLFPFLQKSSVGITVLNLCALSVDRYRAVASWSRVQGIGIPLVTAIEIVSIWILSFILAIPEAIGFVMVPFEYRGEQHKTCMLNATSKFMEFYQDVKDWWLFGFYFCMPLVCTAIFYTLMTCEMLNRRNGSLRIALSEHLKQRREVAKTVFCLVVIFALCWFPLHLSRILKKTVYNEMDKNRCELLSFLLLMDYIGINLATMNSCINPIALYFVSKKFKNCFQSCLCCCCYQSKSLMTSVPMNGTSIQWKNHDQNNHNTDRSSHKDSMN

For a further test, the target named is T4, Glucocorticoid receptor (Homo sapiens, UniProt P04150).
T4 sequence (P04150 whole entry): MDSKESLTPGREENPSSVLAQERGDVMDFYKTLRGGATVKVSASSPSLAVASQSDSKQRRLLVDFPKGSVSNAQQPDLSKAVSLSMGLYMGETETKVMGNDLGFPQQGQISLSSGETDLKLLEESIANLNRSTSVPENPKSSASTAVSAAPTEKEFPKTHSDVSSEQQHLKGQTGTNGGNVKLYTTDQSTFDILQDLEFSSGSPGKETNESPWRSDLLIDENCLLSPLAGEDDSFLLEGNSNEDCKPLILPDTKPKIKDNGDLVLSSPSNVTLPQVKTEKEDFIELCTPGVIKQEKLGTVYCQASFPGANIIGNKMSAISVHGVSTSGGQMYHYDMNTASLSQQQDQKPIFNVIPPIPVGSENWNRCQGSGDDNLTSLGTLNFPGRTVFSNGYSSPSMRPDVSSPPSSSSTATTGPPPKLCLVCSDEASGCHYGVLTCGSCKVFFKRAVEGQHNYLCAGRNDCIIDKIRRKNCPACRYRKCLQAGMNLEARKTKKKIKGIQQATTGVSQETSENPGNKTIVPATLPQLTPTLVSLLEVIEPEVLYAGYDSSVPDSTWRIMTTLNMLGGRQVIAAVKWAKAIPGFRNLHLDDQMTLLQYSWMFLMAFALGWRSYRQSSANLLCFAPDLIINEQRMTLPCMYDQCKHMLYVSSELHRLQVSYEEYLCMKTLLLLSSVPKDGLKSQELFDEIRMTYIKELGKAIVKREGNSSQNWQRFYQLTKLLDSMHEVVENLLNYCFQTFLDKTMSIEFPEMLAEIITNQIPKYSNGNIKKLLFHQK

In test [5] the target is T5, Alpha-1A adrenergic receptor (Homo sapiens, UniProt P35348).
T5 sequence (P35348 whole entry): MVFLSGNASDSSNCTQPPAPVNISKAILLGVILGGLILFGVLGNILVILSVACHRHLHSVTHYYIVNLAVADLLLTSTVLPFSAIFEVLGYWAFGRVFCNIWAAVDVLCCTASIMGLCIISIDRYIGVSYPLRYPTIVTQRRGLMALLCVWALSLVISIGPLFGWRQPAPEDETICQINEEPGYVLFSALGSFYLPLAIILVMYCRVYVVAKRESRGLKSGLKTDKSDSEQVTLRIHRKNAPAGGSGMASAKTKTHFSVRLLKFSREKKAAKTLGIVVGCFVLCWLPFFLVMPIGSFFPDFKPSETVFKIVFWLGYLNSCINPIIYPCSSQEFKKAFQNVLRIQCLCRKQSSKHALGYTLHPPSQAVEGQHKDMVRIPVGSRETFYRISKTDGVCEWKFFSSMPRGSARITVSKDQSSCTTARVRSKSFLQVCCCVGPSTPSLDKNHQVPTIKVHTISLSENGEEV

The structures appear in SMILES notation.
Also: assay procedure not described here.

Sequence of 5-hydroxytryptamine receptor 2A (P28223 whole entry): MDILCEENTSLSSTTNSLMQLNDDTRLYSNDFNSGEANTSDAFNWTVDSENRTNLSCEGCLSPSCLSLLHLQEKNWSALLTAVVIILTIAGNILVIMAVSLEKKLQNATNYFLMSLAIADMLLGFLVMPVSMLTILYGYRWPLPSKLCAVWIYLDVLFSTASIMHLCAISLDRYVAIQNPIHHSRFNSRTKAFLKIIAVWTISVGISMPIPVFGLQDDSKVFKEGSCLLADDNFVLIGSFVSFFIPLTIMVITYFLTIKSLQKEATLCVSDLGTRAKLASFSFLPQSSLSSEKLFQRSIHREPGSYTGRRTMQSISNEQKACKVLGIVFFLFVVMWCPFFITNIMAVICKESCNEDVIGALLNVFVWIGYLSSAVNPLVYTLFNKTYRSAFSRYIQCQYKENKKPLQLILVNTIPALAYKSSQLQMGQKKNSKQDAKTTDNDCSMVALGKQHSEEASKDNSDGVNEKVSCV
Sequence of Vasopressin V2 receptor (P30518 whole entry): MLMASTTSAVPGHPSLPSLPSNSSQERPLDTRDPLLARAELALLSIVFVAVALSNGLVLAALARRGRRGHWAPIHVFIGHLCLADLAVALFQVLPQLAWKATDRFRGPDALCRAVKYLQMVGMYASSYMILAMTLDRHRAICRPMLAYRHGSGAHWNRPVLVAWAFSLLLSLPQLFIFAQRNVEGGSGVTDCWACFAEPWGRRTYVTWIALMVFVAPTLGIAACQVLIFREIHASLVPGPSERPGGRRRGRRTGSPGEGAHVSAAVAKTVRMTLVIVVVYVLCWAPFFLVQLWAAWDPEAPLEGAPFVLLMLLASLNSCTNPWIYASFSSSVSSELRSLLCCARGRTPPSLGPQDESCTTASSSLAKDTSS
Sequence of Neuronal acetylcholine receptor subunit alpha-4 (P43681 whole entry): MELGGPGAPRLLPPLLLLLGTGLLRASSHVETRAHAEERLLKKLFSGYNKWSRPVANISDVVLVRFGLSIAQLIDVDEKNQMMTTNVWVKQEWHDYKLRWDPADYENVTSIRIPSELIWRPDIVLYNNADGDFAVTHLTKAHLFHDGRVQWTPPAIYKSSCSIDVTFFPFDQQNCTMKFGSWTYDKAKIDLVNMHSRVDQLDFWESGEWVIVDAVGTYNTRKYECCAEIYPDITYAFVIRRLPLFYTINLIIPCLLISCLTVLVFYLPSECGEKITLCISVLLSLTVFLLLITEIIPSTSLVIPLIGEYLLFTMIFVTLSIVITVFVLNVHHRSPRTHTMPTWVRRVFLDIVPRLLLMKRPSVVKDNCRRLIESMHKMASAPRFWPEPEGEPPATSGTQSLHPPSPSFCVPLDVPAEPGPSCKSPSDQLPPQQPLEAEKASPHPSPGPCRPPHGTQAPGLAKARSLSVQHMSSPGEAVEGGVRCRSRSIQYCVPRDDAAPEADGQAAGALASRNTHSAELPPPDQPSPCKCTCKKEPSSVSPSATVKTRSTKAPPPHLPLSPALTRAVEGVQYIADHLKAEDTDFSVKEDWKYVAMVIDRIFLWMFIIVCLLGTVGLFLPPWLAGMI
Sequence of Voltage-dependent L-type calcium channel subunit alpha-1C (P22002 whole entry): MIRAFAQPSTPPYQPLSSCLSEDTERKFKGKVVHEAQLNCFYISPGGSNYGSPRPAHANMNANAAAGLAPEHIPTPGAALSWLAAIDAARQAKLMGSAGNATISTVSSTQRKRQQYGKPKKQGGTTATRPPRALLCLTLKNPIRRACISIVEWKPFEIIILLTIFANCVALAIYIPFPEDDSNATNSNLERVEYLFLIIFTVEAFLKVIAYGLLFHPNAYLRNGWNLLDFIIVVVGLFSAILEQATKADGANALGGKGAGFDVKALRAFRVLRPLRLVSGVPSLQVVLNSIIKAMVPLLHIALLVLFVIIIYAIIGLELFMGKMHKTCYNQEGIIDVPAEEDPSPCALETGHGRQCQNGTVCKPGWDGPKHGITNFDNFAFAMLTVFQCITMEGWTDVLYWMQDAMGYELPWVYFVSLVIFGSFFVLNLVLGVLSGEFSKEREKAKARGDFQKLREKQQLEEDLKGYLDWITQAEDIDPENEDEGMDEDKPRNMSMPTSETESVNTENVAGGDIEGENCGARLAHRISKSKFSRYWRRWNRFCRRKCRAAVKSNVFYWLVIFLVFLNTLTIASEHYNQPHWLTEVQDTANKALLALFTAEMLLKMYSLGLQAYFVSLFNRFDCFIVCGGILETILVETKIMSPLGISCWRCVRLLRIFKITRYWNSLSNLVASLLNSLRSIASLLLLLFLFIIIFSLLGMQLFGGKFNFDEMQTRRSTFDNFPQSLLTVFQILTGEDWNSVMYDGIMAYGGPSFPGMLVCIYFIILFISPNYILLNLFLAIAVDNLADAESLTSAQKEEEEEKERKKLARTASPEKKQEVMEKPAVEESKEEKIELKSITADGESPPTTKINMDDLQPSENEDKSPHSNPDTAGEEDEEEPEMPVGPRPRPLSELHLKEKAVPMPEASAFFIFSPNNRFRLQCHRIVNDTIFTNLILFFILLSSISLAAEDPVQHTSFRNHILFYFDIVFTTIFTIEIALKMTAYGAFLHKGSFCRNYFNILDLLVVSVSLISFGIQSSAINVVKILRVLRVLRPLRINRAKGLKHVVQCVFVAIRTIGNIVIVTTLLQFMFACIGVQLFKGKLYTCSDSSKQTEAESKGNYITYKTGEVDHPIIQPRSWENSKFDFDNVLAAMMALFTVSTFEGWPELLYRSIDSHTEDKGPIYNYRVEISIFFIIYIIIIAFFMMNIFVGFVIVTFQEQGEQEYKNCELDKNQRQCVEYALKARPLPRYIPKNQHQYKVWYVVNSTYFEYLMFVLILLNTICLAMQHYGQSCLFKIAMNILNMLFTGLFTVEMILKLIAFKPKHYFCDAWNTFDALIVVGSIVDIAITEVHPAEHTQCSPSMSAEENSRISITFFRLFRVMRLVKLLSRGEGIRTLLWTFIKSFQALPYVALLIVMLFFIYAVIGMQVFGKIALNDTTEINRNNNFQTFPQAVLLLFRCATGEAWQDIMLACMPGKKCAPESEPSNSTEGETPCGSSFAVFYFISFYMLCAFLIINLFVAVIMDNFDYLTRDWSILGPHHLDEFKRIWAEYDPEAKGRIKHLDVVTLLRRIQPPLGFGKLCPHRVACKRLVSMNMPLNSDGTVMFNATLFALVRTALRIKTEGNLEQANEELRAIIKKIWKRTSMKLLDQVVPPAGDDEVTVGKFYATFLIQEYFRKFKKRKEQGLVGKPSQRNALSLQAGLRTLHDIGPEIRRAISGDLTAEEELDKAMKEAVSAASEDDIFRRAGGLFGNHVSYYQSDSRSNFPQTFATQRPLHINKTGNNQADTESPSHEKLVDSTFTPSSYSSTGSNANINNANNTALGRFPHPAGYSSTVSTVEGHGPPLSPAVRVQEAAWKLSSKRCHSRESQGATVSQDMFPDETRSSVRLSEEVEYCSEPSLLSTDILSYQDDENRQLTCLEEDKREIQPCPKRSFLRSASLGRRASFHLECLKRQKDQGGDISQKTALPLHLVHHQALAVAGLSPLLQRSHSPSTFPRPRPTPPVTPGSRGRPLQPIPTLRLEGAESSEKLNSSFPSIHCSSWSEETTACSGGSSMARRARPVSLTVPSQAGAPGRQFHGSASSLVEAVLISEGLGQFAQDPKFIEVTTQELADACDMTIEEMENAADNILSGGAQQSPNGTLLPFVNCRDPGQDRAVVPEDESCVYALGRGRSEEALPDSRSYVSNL
Sequence of Motilin receptor (O43193 whole entry): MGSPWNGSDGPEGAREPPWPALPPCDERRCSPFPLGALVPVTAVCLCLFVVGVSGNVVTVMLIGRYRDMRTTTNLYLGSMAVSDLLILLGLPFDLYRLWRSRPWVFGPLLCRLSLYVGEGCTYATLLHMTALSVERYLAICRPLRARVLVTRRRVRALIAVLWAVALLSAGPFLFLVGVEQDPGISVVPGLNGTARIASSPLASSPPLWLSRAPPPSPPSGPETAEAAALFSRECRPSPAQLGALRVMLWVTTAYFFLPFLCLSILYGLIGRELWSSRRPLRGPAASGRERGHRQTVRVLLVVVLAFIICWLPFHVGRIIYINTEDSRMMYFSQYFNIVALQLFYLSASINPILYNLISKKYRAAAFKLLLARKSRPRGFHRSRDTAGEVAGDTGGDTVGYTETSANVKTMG

For `C[N+](C)(C)CC(=O)O` [BETAINE], the AC50 (at Vasopressin V2 receptor; on Motilin receptor; in test [1]; in test [2]; at Adenosine receptor A1; in [3]) was above 30 µM throughout. Also, the AC50 (in test [4]; at Endothelin-1 receptor) was above 30 µM throughout.
`CCCC(=O)N1CCCN(c2nc(N)c3cc(OC)c(OC)cc3n2)CC1` [BUNAZOSIN]: the AC50 (at Vasopressin V2 receptor; at Motilin receptor; in [1]; in [2]; at Adenosine receptor A1; in test [3]) was above 30 µM throughout. Also, the AC50 – broadly, the concentration giving half of the maximal activity seen – at Endothelin-1 receptor is above 30 µM.
In test [1], `NS(=O)(=O)c1cc2c(cc1Cl)NC(CC1CCCC1)NS2(=O)=O` (configuration not stated) [CYCLOPENTHIAZIDE] registered an AC50 above 30 µM.
For `CC(C(O)c1ccc(O)cc1)N1CCC(Cc2ccccc2)CC1` (configuration not stated) [IFENPRODIL], the AC50 at Vasopressin V2 receptor was above 30 µM; on Motilin receptor, above 30 µM; in [1], 9.6 µM; at Glucocorticoid receptor, above 30 µM; in test [2], above 30 µM; on Adenosine receptor A1 it was above 30 µM. The AC50 (in test [3]; in test [4]; at Endothelin-1 receptor) was above 30 µM in each case.
Regarding `O=C1CCC(N2C(=O)c3ccccc3C2=O)C(=O)N1` (configuration not stated) [THALIDOMIDE], the AC50 at Vasopressin V2 receptor is above 30 µM; at Motilin receptor, above 10 µM; in test [5], above 10 µM; at Glucocorticoid receptor, above 30 µM; on Adenosine receptor A1, above 30 µM; in test [3], above 30 µM. In addition, the AC50 was above 10 µM in [4] and above 30 µM on Endothelin-1 receptor.
With `NS(=O)(=O)c1cc(-c2nnn[nH]2)c(NCc2cccs2)cc1Cl` [AZOSEMIDE], the AC50 (on Vasopressin V2 receptor; on Motilin receptor; in test [1]; on Glucocorticoid receptor; in test [2]; on Adenosine receptor A1) was above 30 µM throughout. Moreover, the AC50 (in test [3]; in test [4]; at Endothelin-1 receptor) was above 30 µM each time.
As for `Nc1ccc(/N=N/c2ccccc2)c(N)n1` [PHENAZOPYRIDINE], the AC50 in [1] was above 30 µM.
As to `CO/N=C(\C(=O)N[C@@H]1C(=O)N2C(C(=O)OCOC(=O)C(C)(C)C)=C(C)CS[C@H]12)c1csc(N)n1`, in test [1], the AC50 is above 30 µM.
`COCC1=C(C(=O)OC(C)OC(=O)OC(C)C)N2C(=O)[C@@H](NC(=O)/C(=N\OC)c3csc(N)n3)[C@H]2SC1` (some centres not stated) [CEFPODOXIME PROXETIL]: the AC50 in test [1] was above 30 µM.
Turning to `N[C@@H](CSCC(=O)O)C(=O)O` [CARBOCYSTEINE], the AC50 (at Vasopressin V2 receptor; on Motilin receptor; in test [1]; in [2]; at Adenosine receptor A1; in test [3]) was above 30 µM in each case. Also, the AC50 (in test [4]; at Endothelin-1 receptor) was above 30 µM in each case.
Molecule `CN1C(=O)N(C)C2C1N(C)C(=O)N2C` (configuration not stated) [MEBICAR] returned an AC50 in [1] above 30 µM.
As for `CN(CCCN1c2ccccc2CCc2ccccc21)CC(=O)c1ccc(Cl)cc1` [LOFEPRAMINE], the AC50 at Vasopressin V2 receptor is above 30 µM; on Motilin receptor it was above 30 µM; in test [1], 6.6 µM; at Glucocorticoid receptor it was above 30 µM; in [2] it was above 30 µM; at Adenosine receptor A1 it was above 30 µM. Moreover, the figures for the AC50 (in [3]; in test [4]; at Endothelin-1 receptor) were above 30 µM, 2.4 µM and above 30 µM, respectively.
Turning to `O=C(Cn1ccnc1[N+](=O)[O-])NCc1ccccc1` [BENZNIDAZOLE], the AC50 (at Vasopressin V2 receptor; at Motilin receptor; in test [1]; at Glucocorticoid receptor; in test [2]; at Adenosine receptor A1) was above 30 µM each time. Moreover, the AC50 (in [3]; in test [4]; on Endothelin-1 receptor) was above 30 µM in each case.
Consider `CN(C)CCCN1c2ccccc2Sc2ccccc21` [PROMAZINE], for which the AC50 was above 30 µM on Vasopressin V2 receptor; above 10 µM at Motilin receptor; 0.0171 µM in test [5]; above 30 µM on Adenosine receptor A1; above 30 µM in test [3]; above 10 µM in test [4]. The AC50 on Endothelin-1 receptor is above 30 µM.
`CN(C/C=C/c1ccccc1)Cc1cccc2ccccc12` [NAFTIFINE]: the AC50 on Vasopressin V2 receptor is above 30 µM; at Motilin receptor, above 10 µM; in test [5], 2.15 µM; on Glucocorticoid receptor, above 30 µM; in test [2], above 10 µM; at Adenosine receptor A1, above 30 µM. The AC50 is above 30 µM in [3] and above 10 µM in test [4].
`N/N=c1/cc2c(n[nH]1)CCN(C(=O)c1ccccc1)C2` [ENDRALAZINE] gave an AC50 in test [1] above 30 µM.
Take `CC(=O)O[C@]1(C(C)=O)CC[C@H]2[C@@H]3C[C@H](C)C4=CC(=O)CC[C@]4(C)[C@H]3CC[C@@]21C` [MEDROXYPROGESTERONE ACETATE]: the AC50 is above 30 µM at Vasopressin V2 receptor; above 30 µM at Motilin receptor; 0.015 µM on Glucocorticoid receptor; above 30 µM in test [2]; above 30 µM at Adenosine receptor A1; above 30 µM in test [3]. The molecule further registered an AC50 on Endothelin-1 receptor above 30 µM.
Take `O=P(O)(O)C(O)(Cc1cccnc1)P(=O)(O)O` [RISEDRONIC ACID]: the AC50 at Vasopressin V2 receptor was above 30 µM; at Motilin receptor it was above 30 µM; in test [5], above 10 µM; at Glucocorticoid receptor, above 30 µM; in [2] it was above 30 µM; at Adenosine receptor A1, above 30 µM. Also, the AC50 (in [3]; in [4]; at Endothelin-1 receptor) was above 30 µM throughout.
As to `O=C(O)c1cccc(-c2noc(-c3ccccc3F)n2)c1`, the AC50 in test [5] and in test [2] was above 10 µM in each case.
As to `C[N+](C)(C)CCOC(N)=O` [CARBAMOYLCHOLINE], the half-maximal activity concentration (AC50) (at Vasopressin V2 receptor; on Motilin receptor; in [5]; in [2]; on Adenosine receptor A1; in test [4]) was above 10 µM in each case.
